Test results from patent US11602531B2, “Vacuole-inducing compounds, methods of making and using the same” (The University of Toledo, priority 2017, dated 2023).

How the values were obtained:
Assay type in all cases: cell-based, human
[1] = system: U251 glioblastoma cells; experiment: Vacuolization of U251 cells by phase contrast and electron microscopy; conditions: 24 h; for vacuolization of endocytic compartments (accumulation of vacuoles): 10 μM MOPIPP or 1 μM vacuolin-1, phase contrast microscopy
[2] = system: U251 glioblastoma cells; experiment: Cell counts, proliferation and viability of treated cultures (Coulter Counter); conditions: for cell attachment and proliferation despite vacuolization / growth inhibition (cell numbers versus DMSO control): U251 cells, 24 h; for cell attachment and proliferation despite vacuolization / cell proliferation and viability: 10 μM MOPIPP or 1 μM vacuolin-1; for growth inhibition (cell numbers versus DMSO control): 10 μM MOPIPP or 1 μM vacuolin-1, Coulter Counter; for cell proliferation and viability: U251 glioblastoma cells
Protocol: U251 human glioblastoma cells were purchased from the DCT Tumor Repository (National Cancer Institute, Frederick, Md.). Stock cultures were maintained in Dulbecco's modified Eagle medium (DMEM) containing 10% (v/v) fetal bovine serum (FBS) (JR Scientific, Woodland, Calif.) at 37° C. with an atmosphere of 5% CO2 in air. Cultures were passaged for less than 6 months and were monitored periodically for Mycoplasma contamination.
(§1) Prior to beginning studies, cells were seeded in 10 cm diameter culture dishes at 500,000 cells/dish and maintained for 24 h in DMEM supplemented with 10% Gibco™ exosome-depleted FBS (ThermoFisher Scientific, Waltham, Mass.). The medium was then replaced with fresh medium containing either 10 μM MOPIPP (synthesized as described in Trabbic et al., “Differential Induction of Cytoplasmic Vacuolization and Methuosis by Novel 2-Indolyl-Substituted Pyridinylpropenones, ACS Med. Chem. Lett., 5 (2014) 73-77) or 1 μM vacuolin-1 (Santa Cruz Biotechnology, Santa Cruz, Calif.) dissolved in DMSO. Control cultures contain an equivalent volume of the DMSO vehicle (0.1%) in the medium. After 24 h, the medium was collected from the dishes (typically 10-12 dishes per condition) and the attached cells were pooled and counted with a Coulter Counter (model Z1). Exosomes were isolated from medium using the Exo-Spin™ Exosome Purification system (Cell Guidance Systems, St. Louis, Mo.). The medium was pre-cleared by centrifugation at 4° C., first at 300×g for 10 min and then at 16,000×g for 30 min. Then a volume of Buffer A equal to half the volume of medium was added and the mixture was incubated overnight at 4° C. The precipitate, enriched with exosomes, was collected by centrifugation at 16,000×g for 1 h, and the pellet was re-suspended in […] Dulbecco's phosphate-buffered saline (PBS), pH 7.4. The material was applied to an Exo-Spin column equilibrated with PBS, and the purified exosomes were eluted in 200 μl of PBS.

[3] = system: U251 glioblastoma cells; experiment: Immunoblot quantification of exosome marker proteins (CD63, Alix, LAMP-1) in purified exosomes and in cells; conditions: 10 μM MOPIPP or 1 μM vacuolin-1, western blot; for changes in expression of CD63, Alix and LAMP-1 in the corresponding cell populations: cell lysates, 24 h; for relative amounts of CD63, Alix and LAMP-1 in extracellular vesicle preparations versus control: exosomes from 24 h conditioned medium
Protocol: as §1
The cells in the dishes used for collection of exosomes were washed three times with PBS and lysed in SDS sample buffer (Laemmli, “Cleavage of structural proteins during the assembly of the head of bacteriophage T4, Nature, 227 (1970) 680-685). The protein concentration was determined by colorimetric assay using Bio-Rad reagent (Bio-Rad, Richmond, Calif.). Samples containing equal amounts of total cell protein were subjected to SDS-PAGE and immunoblot analysis (as described in Maltese et al., “Retention of the Alzheimer's amyloid precursor fragment C99 in the endoplasmic reticulum prevents formation of amyloid beta-peptide, J. Biol. Chem., 276 (2001) 20267-20279). For analysis of proteins in exosomes, equal volumes of purified exosomes isolated from control or treated cells were mixed with ⅕ volume of 5×SDS sample buffer prior to SDS-PAGE. Monoclonal antibodies against CD63 and LAMP-1 were obtained from the Developmental Studies Hybridoma Bank (Iowa City, Iowa). […] Chemiluminescent signals on the membranes were quantified using an Alpha Innotech FluorChem HD2 imaging system with Alpha View software.

[4] = system: U251 glioblastoma cells; experiment: RT-PCR analysis of miRNAs in cells and exosomes; conditions: for relative abundance of miR-21-5p in exosomal RNA: equal amounts of exosomal RNA, raw Ct values, three independent experiments
Protocol: Prior to beginning studies, cells were seeded in 10 cm diameter culture dishes at 500,000 cells/dish and maintained for 24 h in DMEM supplemented with 10% Gibco™ exosome-depleted FBS (ThermoFisher Scientific, Waltham, Mass.). The medium was then replaced with fresh medium containing either 10 μM MOPIPP (synthesized as described in Trabbic et al., “Differential Induction of Cytoplasmic Vacuolization and Methuosis by Novel 2-Indolyl-Substituted Pyridinylpropenones, ACS Med. Chem. Lett., 5 (2014) 73-77) or 1 μM vacuolin-1 (Santa Cruz Biotechnology, Santa Cruz, Calif.) dissolved in DMSO. Control cultures contain an equivalent volume of the DMSO vehicle (0.1%) in the medium. After 24 h, the medium was collected from the dishes (typically 10-12 dishes per condition) and the attached cells were pooled and counted with a Coulter Counter (model Z1). Exosomes were isolated from medium using the Exo-Spin™ Exosome Purification system (Cell Guidance Systems, St. Louis, Mo.). The medium was pre-cleared by centrifugation at 4° C., first at 300×g for 10 min and then at 16,000×g for 30 min. Then a volume of Buffer A equal to half the volume of medium was added and the mixture was incubated overnight at 4° C. The precipitate, enriched with exosomes, was collected by centrifugation at 16,000×g for 1 h, and the pellet was re-suspended in […] Dulbecco's phosphate-buffered saline (PBS), pH 7.4. […]
Total RNA was extracted and purified from cultured cells or exosomes using QIAzol™ lysis reagent followed by RNAeasy Mini spin-columns, according to the manufacturer's protocol (SA Biosciences/Qiagen, Germantown, Md.). […] RNA and cDNA were quantified and checked for purity (OD 260/280) using a Nano-Drop-1000 spectrophotometer (ThermoFisher). […] For comparisons of the miRNA contents of exosomes collected from the medium of cells treated with MOPIPP, vacuolin-1 or vehicle (DMSO), individual miScript primers were purchased for six of the most highly expressed miRNAs detected in U251 cells (SA Biosciences/Qiagen). […]

Compound	vacuolization of endocytic compartments (accumulation of vacuoles) [1]	subpopulation of vacuoles containing clusters of heterogeneous vesicles (ILV/exosome size) ([1]; 10 μM MOPIPP, electron microscopy)	cell attachment and proliferation despite vacuolization [2]	growth inhibition (cell numbers versus DMSO control) [2]	cell proliferation and viability [2]	changes in expression of CD63, Alix and LAMP-1 in the corresponding cell populations [3]	relative amounts of CD63, Alix and LAMP-1 in extracellular vesicle preparations versus control [3]	cellular expression of 13 selected miRNAs ([4]; U251 cells, 24 h, 10 μM MOPIPP versus DMSO, RT-PCR)	relative abundance of miR-21-5p in exosomal RNA [4]
CCCc1[nH]c2ccc(OC)cc2c1C=CC(=O)c1ccncc1 [MOPIPP, 3-(5-methoxy-2-propyl-1H-indol-3-yl)-1-(4-pyridinyl)-2-propen-1-one]	resulted in vacuolization of endocytic compartments	20-30%	remained attached to the culture dishes and continued to proliferate	lack of growth inhibition	not markedly impaired	comparatively modest	increased by several fold	did not cause major changes	no observations of any changes
Ic1cccc(/C=N/Nc2nc(N3CCOCC3)nc(N(c3ccccc3)c3ccccc3)n2)c1 [vacuolin-1, reference compound]	induced a very similar phenotype		remained attached to the culture dishes and continued to proliferate	lack of growth inhibition	not markedly impaired	comparatively modest	An even greater increase		no observations of any changes
